Results from publication PMC9448382, “Fluorosulfate-containing pyrazole heterocycles as selective BuChE inhibitors: structure-activity relationship and biological evaluation for the treatment of Alzheimer’s disease” (Journal of Enzyme Inhibition and Medicinal Chemistry, 2022).

Experiments:
[1] = system: human hepatoblastoma cells HepG2; assay: Cytotoxicity MTT assay, HepG2 cells; details: 50 μM, 24 h
Method: (§1) Human hepatoblastoma cells HepG2 and human normal liver cells LO2 cells were cultured at 37 °C in DMEM containing 10% foetal bovine serum, 100 U/mL penicillin, and […] streptomycin in a humidified incubator with 5% CO2. The methyl thiazolyl tetrazolium (MTT) assay was used to assess cell cytotoxicity. In a 96-well plate, HepG2 cells and LO2 cells were injected at 1 × 10^4 cells per well. The cells were treated with various substances that were diluted in DMEM for 24 h after being cultivated for 24 h. The cells were then treated for 4 h with 20 µL 0.5 mg/mL MTT reagent. The cell culture was withdrawn after 4 h, and 150 µL DMSO were added to dissolve the formazan. […] Three independent tests were used to calculate cell viability.
(§2) Blank: cultured with fresh medium only.

in vitro = assay: in vitro
Text: Based on prior work[40]^,[41], a parallel artificial membrane permeation assay (PAMPA) for the blood-brain barrier (BBB) was used to determine the ability of the test chemical to penetrate into the brain. Six commercial medicines were purchased from Aladdin Reagents to validate the methodology. Energy Chemical provided the DMSO and dodecane. Avanti Polar Lipids provided the porcine brain lipid (PBL). Millipore provided the donor 96-well filter microplate with a PVDF membrane (pore size […]) and the acceptor indented 96-well microplate. Corning Inc. provided the 96-well UV plate (COSTAR). DMSO was used to dissolve commercial medications and test compounds at a concentration of 20 mg/mL. They were then diluted 200 times in a solution of PBS (pH 7.4 ± 0.1)/EtOH (70/30, v/v) to achieve a final concentration of 100 µg/mL. The donor microplate's fifilter membrane was coated with 4 µL of PBL in dodecane (20 mg/mL). The donor wells were then filled with 200 µL of diluted chemical solution and 300 µL of PBS/EtOH (70/30, v/v). To make the membrane contact with buffer solution, the donor fifilter plate was carefully positioned on top of the acceptor plate to form a “sandwich” assembly. At 25 °C, the sandwich was left undisturbed. The donor plate was carefully removed after 18 h of incubation, and the concentrations of test chemicals in the donor and acceptor wells were quantified using a UV plate spectroscopic reader (PerkinElmer VICTOR Nivo, Finland). Each sample was analysed at three wavelengths, in at least three independent experiments, in four wells.
Pe, permeability, refers to the ability of compounds to permeate the membranes through passive diffusion in the blood-brain barrier penetration assays.

[2] = system: human normal liver cells LO2; assay: Cytotoxicity MTT assay, L02 cells; details: 50 μM, 24 h
Method: as §1, §2

Q: Which results are given for `O=S(=O)(F)Oc1cc(-c2ccccc2)nn1-c1ccc(Cl)cc1` [Compound K3]?
A: cell survival rate [1]: 87.9%; Papp (in vitro; PAMPA, pH 7.4): 7.2 ×10⁻⁶ cm/s; Pe Exp. value (in vitro; PAMPA-BBB, 18 h, 25 °C, three independent experiments): above 4 ×10^-6cm/s; cell survival rate [2]: 94.4%
